From the Kinase Knowledgebase extract (Sharma et al. 2016) come the findings set out here.

For assay [1], the target named is PIK3CA (human) (UniProt P42336). Description: Enzyme Assay.
Assay [2] addresses PIK3CG (human) (UniProt P48736). Briefly: Enzyme Assay.
Assay [3] addresses PIK3CD (Human) (UniProt O00329). Briefly: Enzyme Assay.
The target in assay [4] is PIK3CA (human) (UniProt P42336). Description: Cell-Based Assay. The following applies: rat-1.
The target of assay [5] is PIK3CG (human) (UniProt P48736). Briefly: Cell-Based Assay. Conditions: u937.
PIK3CG (human), sequence (P48736 whole entry, looked up): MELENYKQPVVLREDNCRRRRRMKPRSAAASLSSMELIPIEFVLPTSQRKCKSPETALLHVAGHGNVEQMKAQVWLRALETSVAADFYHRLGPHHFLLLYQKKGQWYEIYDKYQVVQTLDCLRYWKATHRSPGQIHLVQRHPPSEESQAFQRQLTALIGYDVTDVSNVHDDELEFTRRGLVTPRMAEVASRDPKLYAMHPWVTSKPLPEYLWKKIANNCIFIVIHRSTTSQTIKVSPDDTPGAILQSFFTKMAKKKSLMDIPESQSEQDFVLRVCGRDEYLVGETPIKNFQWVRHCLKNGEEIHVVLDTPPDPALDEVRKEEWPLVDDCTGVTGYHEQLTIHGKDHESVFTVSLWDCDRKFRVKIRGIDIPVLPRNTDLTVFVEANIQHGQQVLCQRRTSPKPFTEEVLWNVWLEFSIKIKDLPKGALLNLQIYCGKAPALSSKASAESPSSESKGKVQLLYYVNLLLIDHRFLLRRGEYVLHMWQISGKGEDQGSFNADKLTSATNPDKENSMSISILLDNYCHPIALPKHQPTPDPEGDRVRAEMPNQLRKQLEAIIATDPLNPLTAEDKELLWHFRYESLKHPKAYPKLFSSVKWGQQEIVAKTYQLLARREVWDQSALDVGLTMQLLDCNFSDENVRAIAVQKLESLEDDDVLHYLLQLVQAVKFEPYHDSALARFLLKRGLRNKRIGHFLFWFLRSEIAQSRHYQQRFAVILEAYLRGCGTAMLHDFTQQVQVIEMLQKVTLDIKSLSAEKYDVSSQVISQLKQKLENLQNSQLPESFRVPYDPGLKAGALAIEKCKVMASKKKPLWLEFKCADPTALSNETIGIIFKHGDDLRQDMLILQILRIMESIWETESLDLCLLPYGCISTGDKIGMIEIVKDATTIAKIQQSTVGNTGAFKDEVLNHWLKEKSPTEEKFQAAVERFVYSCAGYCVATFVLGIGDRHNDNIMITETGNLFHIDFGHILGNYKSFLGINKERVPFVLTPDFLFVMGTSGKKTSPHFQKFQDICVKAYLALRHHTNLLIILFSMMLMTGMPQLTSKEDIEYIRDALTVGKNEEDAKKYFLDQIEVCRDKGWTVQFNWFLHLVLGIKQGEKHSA
The target in assay [6] is PIK3CD (Human) (UniProt O00329). Description: Cell-Based Assay. The following applies: rat-1.
PIK3CD (Human), sequence (O00329 whole entry, looked up): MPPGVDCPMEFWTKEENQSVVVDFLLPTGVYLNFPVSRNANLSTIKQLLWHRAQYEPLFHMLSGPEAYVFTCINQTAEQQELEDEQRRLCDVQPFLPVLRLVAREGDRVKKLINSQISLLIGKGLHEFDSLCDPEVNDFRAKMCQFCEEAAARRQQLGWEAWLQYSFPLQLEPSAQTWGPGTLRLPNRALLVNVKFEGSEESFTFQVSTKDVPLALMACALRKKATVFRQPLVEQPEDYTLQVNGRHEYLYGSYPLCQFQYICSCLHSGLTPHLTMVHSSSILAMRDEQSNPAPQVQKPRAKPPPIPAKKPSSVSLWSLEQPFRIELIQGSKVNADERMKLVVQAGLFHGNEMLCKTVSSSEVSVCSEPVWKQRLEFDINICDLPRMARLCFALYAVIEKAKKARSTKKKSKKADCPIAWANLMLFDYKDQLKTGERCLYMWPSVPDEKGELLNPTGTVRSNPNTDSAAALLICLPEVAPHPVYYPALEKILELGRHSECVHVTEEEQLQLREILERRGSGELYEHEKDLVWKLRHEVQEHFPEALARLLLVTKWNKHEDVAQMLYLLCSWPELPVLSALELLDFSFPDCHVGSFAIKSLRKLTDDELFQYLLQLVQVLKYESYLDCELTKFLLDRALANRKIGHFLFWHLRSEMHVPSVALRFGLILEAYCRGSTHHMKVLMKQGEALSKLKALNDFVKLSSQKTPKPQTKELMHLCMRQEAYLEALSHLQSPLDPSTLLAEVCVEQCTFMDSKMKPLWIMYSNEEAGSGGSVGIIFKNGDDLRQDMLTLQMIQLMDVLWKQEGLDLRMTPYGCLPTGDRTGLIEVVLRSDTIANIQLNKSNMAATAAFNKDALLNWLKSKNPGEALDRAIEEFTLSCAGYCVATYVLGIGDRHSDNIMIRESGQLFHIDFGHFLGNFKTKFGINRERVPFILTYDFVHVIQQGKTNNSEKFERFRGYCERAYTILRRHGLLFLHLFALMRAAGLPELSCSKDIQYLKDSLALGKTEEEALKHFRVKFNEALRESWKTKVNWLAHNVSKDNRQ

PIK3CA (human), sequence (P42336 whole entry, looked up): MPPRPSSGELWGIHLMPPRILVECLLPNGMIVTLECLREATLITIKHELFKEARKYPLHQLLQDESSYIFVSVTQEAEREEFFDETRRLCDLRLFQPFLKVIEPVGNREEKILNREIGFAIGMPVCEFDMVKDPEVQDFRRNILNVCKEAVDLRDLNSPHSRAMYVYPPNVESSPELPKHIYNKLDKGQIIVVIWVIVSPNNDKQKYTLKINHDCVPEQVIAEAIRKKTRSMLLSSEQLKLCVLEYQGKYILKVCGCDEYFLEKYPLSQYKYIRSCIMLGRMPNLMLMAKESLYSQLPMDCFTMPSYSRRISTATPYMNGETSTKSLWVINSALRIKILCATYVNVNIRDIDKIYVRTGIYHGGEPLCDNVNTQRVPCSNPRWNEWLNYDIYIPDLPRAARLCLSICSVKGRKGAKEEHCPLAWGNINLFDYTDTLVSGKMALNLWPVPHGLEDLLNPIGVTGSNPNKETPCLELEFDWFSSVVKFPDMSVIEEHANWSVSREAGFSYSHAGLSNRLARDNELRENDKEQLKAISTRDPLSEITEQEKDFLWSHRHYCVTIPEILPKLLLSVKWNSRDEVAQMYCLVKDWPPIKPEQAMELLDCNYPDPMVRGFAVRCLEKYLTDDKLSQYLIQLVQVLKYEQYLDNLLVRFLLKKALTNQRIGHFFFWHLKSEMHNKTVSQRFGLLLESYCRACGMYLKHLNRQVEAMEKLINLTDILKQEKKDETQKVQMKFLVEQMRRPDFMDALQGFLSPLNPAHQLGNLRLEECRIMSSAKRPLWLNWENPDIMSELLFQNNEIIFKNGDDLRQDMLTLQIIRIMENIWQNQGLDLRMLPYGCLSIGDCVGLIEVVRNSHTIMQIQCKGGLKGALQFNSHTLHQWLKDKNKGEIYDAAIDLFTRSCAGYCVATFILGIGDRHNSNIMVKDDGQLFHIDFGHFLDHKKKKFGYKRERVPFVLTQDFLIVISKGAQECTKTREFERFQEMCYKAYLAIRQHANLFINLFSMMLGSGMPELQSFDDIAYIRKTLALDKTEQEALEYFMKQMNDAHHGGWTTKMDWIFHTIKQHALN

Consider `Cc1nc(N)nc(N2CCC[C@H]2c2nc3cccc(C(F)(F)F)c3c(=O)n2-c2cccnc2)c1C#N`, for which the IC50 at PIK3CA (human) [1] was determined as 540 nM; against PIK3CG (human) [2] it was 180 nM; at PIK3CD (Human) [3], 24 nM; against PIK3CA (human) [4] it was 3840 nM; at PIK3CG (human) [5], 82 nM; against PIK3CD (Human) [6], 27 nM.
For the molecule `N#Cc1c(N)ncnc1N1C[C@@H](O)C[C@H]1c1nc2ccc(F)c(Cl)c2c(=O)n1-c1ccccc1`, the IC50 against PIK3CA (human) [1] was 2800 nM; on PIK3CG (human) [2], 990 nM; on PIK3CD (Human) [3] it was 47 nM; on PIK3CA (human) [4] it was 8020 nM; on PIK3CG (human) [5], 26 nM; on PIK3CD (Human) [6] it was 27 nM.
Take `N#Cc1c(N)ncnc1N1CCC[C@H]1c1nc2cccc(F)c2c(=O)n1-c1ccccc1`: the IC50 was 3000 nM at PIK3CA (human) [1]; 650 nM against PIK3CG (human) [2]; 19 nM against PIK3CD (Human) [3]; > 10000 nM against PIK3CA (human) [4]; 148 nM at PIK3CG (human) [5]; < 3 nM at PIK3CD (Human) [6].
For `CS(=O)(=O)N1CC[C@H](n2c([C@@H]3CCCN3c3ncnc4[nH]cnc34)nc3cccc(Cl)c3c2=O)C1`, the IC50 on PIK3CA (human) [1] was > 10000 nM; on PIK3CG (human) [2], 370 nM; against PIK3CD (Human) [3], 360 nM; against PIK3CA (human) [4] it was > 10000 nM; against PIK3CG (human) [5], > 10000 nM; at PIK3CD (Human) [6], 939 nM.
On to `N#Cc1c(N)ncnc1N1CSC[C@H]1c1nc2cccc(Cl)c2c(=O)n1-c1ccccc1`, for which the half-maximal inhibitory concentration (IC50) was 2340 nM against PIK3CA (human) [1]; 129 nM at PIK3CG (human) [2]; 5 nM against PIK3CD (Human) [3]; 8120 nM against PIK3CA (human) [4]; > 10000 nM against PIK3CG (human) [5]; 14 nM against PIK3CD (Human) [6].
Take `Cc1nc(N)nc(N2CCC[C@H]2c2nc3cccc(C(F)(F)F)c3c(=O)n2-c2cncnc2)c1C#N`: the IC50 was 4200 nM on PIK3CA (human) [1]; 230 nM against PIK3CG (human) [2]; 100 nM on PIK3CD (Human) [3]; > 10000 nM against PIK3CA (human) [4]; 306 nM against PIK3CG (human) [5]; 295 nM at PIK3CD (Human) [6].
Consider `CC1(n2c([C@@H]3CCCN3c3ncnc(N)c3C#N)nc3cccc(Cl)c3c2=O)CC1`, for which the IC50 against PIK3CA (human) [1] was 590 nM; against PIK3CG (human) [2] it was 19 nM; on PIK3CD (Human) [3], < 3 nM; against PIK3CA (human) [4] it was 4230 nM; against PIK3CG (human) [5] it was 37 nM; on PIK3CD (Human) [6], 5 nM.
`Cc1ccccc1-n1c([C@@H]2CCCN2c2ncnc(N)c2C#N)nc2cccc(Cl)c2c1=O`: the half-inhibitory concentration (IC50) against PIK3CA (human) [1] is 5210 nM; on PIK3CG (human) [2], 70 nM; against PIK3CD (Human) [3], < 3 nM; against PIK3CA (human) [4], 2200 nM; against PIK3CG (human) [5] it was 27 nM; against PIK3CD (Human) [6], 13 nM.
With `Cc1nc(N)nc(N2CCC[C@H]2c2nc3cccc(F)c3c(=O)n2-c2ccccc2)c1C#N`, the IC50 against PIK3CA (human) [1] was found to be 330 nM; against PIK3CG (human) [2], 64 nM; against PIK3CD (Human) [3], 21 nM; at PIK3CA (human) [4] it was 2870 nM; at PIK3CG (human) [5], 115 nM; against PIK3CD (Human) [6], 9 nM.
For `CO[C@H]1C[C@@H](c2nc3cccc(Cl)c3c(=O)n2-c2ccccc2)N(c2ncnc3[nH]cnc23)C1`, the IC50 on PIK3CA (human) [1] was found to be 1000 nM; on PIK3CG (human) [2], 27 nM; on PIK3CD (Human) [3] it was 11 nM; against PIK3CA (human) [4], 5480 nM; against PIK3CG (human) [5] it was 352 nM; against PIK3CD (Human) [6], 43 nM.
With `Nc1nc(N2CCC[C@H]2c2nc3cccc(Cl)c3c(=O)n2C2CC2)c2nc[nH]c2n1`, the IC50 on PIK3CA (human) [1] came out at 3600 nM; at PIK3CG (human) [2] it was 110 nM; at PIK3CD (Human) [3], 85 nM; at PIK3CA (human) [4], 8120 nM; on PIK3CG (human) [5] it was 886 nM; on PIK3CD (Human) [6] it was 349 nM.
For `Nc1nc(N2CCC[C@H]2c2nc3cccc(Cl)c3c(=O)n2-c2cccnc2)c2nc[nH]c2n1`, the IC50 against PIK3CA (human) [1] was 1500 nM; against PIK3CG (human) [2], 24 nM; on PIK3CD (Human) [3] it was 8 nM; against PIK3CA (human) [4] it was > 10000 nM; against PIK3CG (human) [5] it was 675 nM; against PIK3CD (Human) [6], 77 nM.
